Laboratory results: patent US10758534B2 (Vertex Pharmaceuticals Incorporated, priority 2014, dated 2020)

Biological target: T1, F508del (Homo sapiens, UniProt P13569, DEL508-508)
T1 construct: expressed in transfected cells
Test: Protocol 1: membrane potential optical assay (FLIPR III, voltage sensing dye), identification of potentiator compounds
Assay type: cell-based
Settings: Table 3, compounds of Table 1
Procedure, shortened: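 NIH3T3 F508del cells, 27° C × 24 hrs; compound/DMSO pretreat → redistribution dye load → single forskolin addition with Cl⁻ gradient (gluconate-substituted bath, HEPES pH 7.4). FLIPR III membrane-potential fluorescence read.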

T1 sequence (P13569 with tags, fused parts or gaps DEL508-508): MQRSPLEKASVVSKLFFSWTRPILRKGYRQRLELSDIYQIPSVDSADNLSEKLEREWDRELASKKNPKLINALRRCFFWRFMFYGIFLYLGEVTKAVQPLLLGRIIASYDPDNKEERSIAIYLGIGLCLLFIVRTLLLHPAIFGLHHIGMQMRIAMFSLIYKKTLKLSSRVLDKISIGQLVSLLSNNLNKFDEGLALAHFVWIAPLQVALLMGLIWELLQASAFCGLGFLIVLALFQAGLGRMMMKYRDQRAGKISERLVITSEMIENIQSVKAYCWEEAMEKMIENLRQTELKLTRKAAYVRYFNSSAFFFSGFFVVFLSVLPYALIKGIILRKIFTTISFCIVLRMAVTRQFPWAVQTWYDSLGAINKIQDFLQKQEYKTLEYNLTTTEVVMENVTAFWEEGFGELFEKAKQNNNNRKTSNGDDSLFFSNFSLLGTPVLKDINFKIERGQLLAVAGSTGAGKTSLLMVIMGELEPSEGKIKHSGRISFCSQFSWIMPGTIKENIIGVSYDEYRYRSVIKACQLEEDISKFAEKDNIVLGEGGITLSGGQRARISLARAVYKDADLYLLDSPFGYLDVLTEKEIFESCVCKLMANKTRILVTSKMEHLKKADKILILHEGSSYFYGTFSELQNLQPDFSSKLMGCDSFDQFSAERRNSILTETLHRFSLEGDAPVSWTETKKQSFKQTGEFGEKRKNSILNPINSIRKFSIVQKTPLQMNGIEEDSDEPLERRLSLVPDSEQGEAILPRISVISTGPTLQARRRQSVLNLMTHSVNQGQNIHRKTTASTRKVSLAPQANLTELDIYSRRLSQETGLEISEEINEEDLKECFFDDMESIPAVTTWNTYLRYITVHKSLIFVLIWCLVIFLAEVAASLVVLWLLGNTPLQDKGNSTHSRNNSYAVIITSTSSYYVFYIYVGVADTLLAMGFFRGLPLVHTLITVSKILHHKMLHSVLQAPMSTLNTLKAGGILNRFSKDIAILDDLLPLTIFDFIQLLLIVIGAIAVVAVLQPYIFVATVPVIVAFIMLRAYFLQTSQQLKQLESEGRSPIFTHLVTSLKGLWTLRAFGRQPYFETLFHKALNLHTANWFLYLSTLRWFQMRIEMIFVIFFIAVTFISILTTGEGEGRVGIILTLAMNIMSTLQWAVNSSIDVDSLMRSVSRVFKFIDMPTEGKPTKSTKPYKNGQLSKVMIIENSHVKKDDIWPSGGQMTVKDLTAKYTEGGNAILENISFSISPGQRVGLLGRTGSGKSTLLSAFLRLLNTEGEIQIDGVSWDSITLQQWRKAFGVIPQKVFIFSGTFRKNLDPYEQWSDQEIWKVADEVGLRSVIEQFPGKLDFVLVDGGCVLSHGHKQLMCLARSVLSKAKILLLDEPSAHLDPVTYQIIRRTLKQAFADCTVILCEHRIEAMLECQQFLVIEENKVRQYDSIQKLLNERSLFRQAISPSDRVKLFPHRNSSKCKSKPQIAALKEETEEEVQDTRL

Row | Compound | EC30
1 | CC(C)COc1cc(F)cc(-c2ccc(C(=O)NS(=O)(=O)c3cccc(N)n3)c(OC3COC3)n2)c1 [Compound 872, N-[(6-amino-2-pyridyl)sulfonyl]-6-(3-fluoro-5-isobutoxy-phenyl)-2-(oxetan-3-yloxy)pyridine-3-carboxamide] | ++ (“++” means between 3 uM and 10 uM)
2 | CC(C)COc1cc(F)cc(-c2ccc(C(=O)NS(=O)(=O)C3CCOC3)c(N3C[C@@H](C)CC3(C)C)n2)c1 (stereo partly drawn) [Compound 1640, 6-(3-fluoro-5-isobutoxy-phenyl)-N-tetrahydrofuran-3-ylsulfonyl-2-[(4S)-2,2,4-trimethylpyrrolidin-1-yl]pyridine-3-carboxamide] | +++ (“+++” means <3 uM)
3 | Cc1cc(-c2ccc(C(=O)NS(=O)(=O)c3cccc(N)n3)c(N3C[C@@H](C)CC3(C)C)n2)cnc1OCCOC(C)C [Compound 1973, N-[(6-amino-2-pyridyl)sulfonyl]-6-[6-(2-isopropoxyethoxy)-5-methyl-3-pyridyl]-2-[(4S)-2,2,4-trimethylpyrrolidin-1-yl]pyridine-3-carboxamide] | +++ (“+++” means <3 uM)
4 | C[C@@H]1CN(c2nc(C(F)(F)F)ccc2C(=O)NS(=O)(=O)c2cccc(N)n2)C(C)(C)C1 [Compound 1556, N-[(6-amino-2-pyridyl)sulfonyl]-6-(trifluoromethyl)-2-[(4S)-2,2,4-trimethylpyrrolidin-1-yl]pyridine-3-carboxamide] | +++ (“+++” means <3 uM)
5 | CC(C)COc1cc(F)cc(-c2ccc(C(=O)NS(=O)(=O)c3cccc(N)n3)c(N3C[C@@H](F)C[C@H]3C)n2)c1 [Compound 1362, N-[(6-amino-2-pyridyl)sulfonyl]-6-(3-fluoro-5-isobutoxy-phenyl)-2-[(2R,4S)-4-fluoro-2-methyl-pyrrolidin-1-yl]pyridine-3-carboxamide] | +++ (“+++” means <3 uM)
6 | CC1CN(c2ncccc2C(=O)NS(=O)(=O)c2cccc(N3CCN(C(=O)OC(C)(C)C)CC3)n2)C(C)(C)C1 (centres unmarked) [Compound 1773, tert-butyl 4-[6-[[2-(2,2,4-trimethylpyrrolidin-1-yl)pyridine-3-carbonyl]sulfamoyl]-2-pyridyl]piperazine-1-carboxylate] | +++ (“+++” means <3 uM)
7 | COC1CCN(c2nc(C(C)(C)C)ccc2C(=O)NS(=O)(=O)c2cccc(N)n2)CC1 [Compound 1164, N-[(6-amino-2-pyridyl)sulfonyl]-6-tert-butyl-2-(4-methoxy-1-piperidyl)pyridine-3-carboxamide] | ++ (“++” means between 3 uM and 10 uM)
8 | CC(C)COc1cc(F)cc(-c2ccc(C(=O)NS(=O)(=O)c3cccc(N)n3)c(N3CC(C)CC(C)C3)n2)c1 (centres unmarked) [Compound 1013, N-[(6-amino-2-pyridyl)sulfonyl]-2-(3,5-dimethyl-1-piperidyl)-6-(3-fluoro-5-isobutoxy-phenyl)pyridine-3-carboxamide] | +++ (“+++” means <3 uM)
9 | CC(C)COc1cc(F)cc(-c2nc(N3C[C@H](C)CC3(C)C)ccc2C(=O)NS(=O)(=O)c2cccc(N)n2)c1 [Compound 1385, N-[(6-amino-2-pyridyl)sulfonyl]-2-(3-fluoro-5-isobutoxy-phenyl)-6-[(4R)-2,2,4-trimethylpyrrolidin-1-yl]pyridine-3-carboxamide] | +++ (“+++” means <3 uM)
10 | C[C@@H]1CN(c2nc(-c3cc(F)cc(F)c3)ccc2C(=O)NS(=O)(=O)N2CC[C@H](N)C2)C(C)(C)C1 [Compound 1716, N-[(3S)-3-aminopyrrolidin-1-yl]sulfonyl-6-(3,5-difluorophenyl)-2-[(4S)-2,2,4-trimethylpyrrolidin-1-yl]pyridine-3-carboxamide] | ++ (“++” means between 3 uM and 10 uM)
11 | Cc1cc(C)c(Oc2nc(C(C)(C)C)ccc2C(=O)NS(=O)(=O)c2ccnn2C)c(C)c1 [Compound 911, 6-tert-butyl-N-(2-methylpyrazol-3-yl)sulfonyl-2-(2,4,6-trimethylphenoxy)pyridine-3-carboxamide] | +++ (“+++” means <3 uM)
12 | CCOc1cccc2c1CN(Cc1c(C)cc(C)cc1C)C2(C)C(=O)NS(=O)(=O)c1cscn1 (centres unmarked) [Compound 1542, 4-ethoxy-1-methyl-N-thiazol-4-ylsulfonyl-2-[(2,4,6-trimethylphenyl)methyl]isoindoline-1-carboxamide] | +++ (“+++” means <3 uM)
13 | COc1ccc(OC)c(-c2ccc(C(=O)NS(=O)(=O)c3ccc[nH]c3=O)c(Oc3c(C)cc(C)cc3C)n2)c1 [Compound 888, 6-(2,5-dimethoxyphenyl)-N-[(2-oxo-1H-pyridin-3-yl)sulfonyl]-2-(2,4,6-trimethylphenoxy)pyridine-3-carboxamide] | ++ (“++” means between 3 uM and 10 uM)
14 | CC1CN(c2ncc(-c3ccc(C(C)C)cc3)cc2C(=O)NS(=O)(=O)c2cccc(N)n2)C(C)(C)C1 (centres unmarked) [Compound 1809] | +++ (“+++” means <3 uM)
15 | CCc1ccccc1-c1cnc(Oc2c(C)cc(C)cc2C)c(C(=O)NS(=O)(=O)c2cccc(N)n2)c1 [Compound 945, N-[(6-amino-2-pyridyl)sulfonyl]-5-(2-ethylphenyl)-2-(2,4,6-trimethylphenoxy)pyridine-3-carboxamide] | +++ (“+++” means <3 uM)
16 | COc1ncccc1S(=O)(=O)NC(=O)c1cc2ccc(C)cc2nc1N1C[C@@H](C)CC1(C)C [Compound 1859, N-[(2-methoxy-3-pyridyl)sulfonyl]-7-methyl-2-[(4S)-2,2,4-trimethylpyrrolidin-1-yl]quinoline-3-carboxamide] | +++ (“+++” means <3 uM)
17 | CCOc1cccc(-c2ccc(C(=O)NS(=O)(=O)c3cccnc3N)c(N3C[C@@H](C)CC3(C)C)n2)c1 [Compound 1822, N-[(2-amino-3-pyridyl)sulfonyl]-6-(3-ethoxyphenyl)-2-[(4S)-2,2,4-trimethylpyrrolidin-1-yl]pyridine-3-carboxamide] | +++ (“+++” means <3 uM)
18 | CC(C)c1cccc(-c2ccc(C(=O)NS(=O)(=O)c3cccnc3N)c(N3C[C@@H](C)CC3(C)C)n2)c1 [Compound 1991, N-[(2-amino-3-pyridyl)sulfonyl]-6-(3-isopropylphenyl)-2-[(4S)-2,2,4-trimethylpyrrolidin-1-yl]pyridine-3-carboxamide] | +++ (“+++” means <3 uM)
19 | CC(C)COc1cnn(-c2ccc(C(=O)NS(=O)(=O)c3ccc[nH]c3=O)c(N3C[C@@H](C)CC3(C)C)n2)c1 [Compound 1760, 6-(4-isobutoxypyrazol-1-yl)-N-[(2-oxo-1H-pyridin-3-yl)sulfonyl]-2-[(4S)-2,2,4-trimethylpyrrolidin-1-yl]pyridine-3-carboxamide] | ++ (“++” means between 3 uM and 10 uM)
20 | CCOc1ccc(-c2ccc(C(=O)NS(=O)(=O)c3cccc(N)n3)c(Oc3c(C)cc(C)cc3C)n2)cc1OC [Compound 1268, N-[(6-amino-2-pyridyl)sulfonyl]-6-(4-ethoxy-3-methoxy-phenyl)-2-(2,4,6-trimethylphenoxy)pyridine-3-carboxamide] | +++ (“+++” means <3 uM)
21 | C[C@@H]1CN(c2nc(-c3cccc(Cl)c3)ccc2C(=O)NS(=O)(=O)c2ccc[nH]c2=O)C(C)(C)C1 [Compound 1791, 6-(3-chlorophenyl)-N-[(2-oxo-1H-pyridin-3-yl)sulfonyl]-2-[(4S)-2,2,4-trimethylpyrrolidin-1-yl]pyridine-3-carboxamide] | +++ (“+++” means <3 uM)
22 | Cc1cc(C)c(Cn2nc(C(C)(C)C)cc2C(=O)NS(=O)(=O)c2ccccc2N)c(C)c1 [Compound 1167, N-(2-aminophenyl)sulfonyl-5-tert-butyl-2-[(2,4,6-trimethylphenyl)methyl]pyrazole-3-carboxamide] | +++ (“+++” means <3 uM)
23 | COc1nccc2c1cc(C(=O)NS(=O)(=O)c1cccc(N)c1)n2Cc1c(C)cc(C)cc1C [Compound 943, N-(3-aminophenyl)sulfonyl-4-methoxy-1-[(2,4,6-trimethylphenyl)methyl]pyrrolo[3,2-c]pyridine-2-carboxamide] | + (“+” means greater than 10 uM)
24 | Cc1cc(Cl)cc(-c2cnc(N3CC(C)CC3(C)C)c(C(=O)NS(=O)(=O)c3cccc(N)n3)c2)c1 (centres unmarked) [Compound 1963, N-[(6-amino-2-pyridyl)sulfonyl]-5-(3-chloro-5-methyl-phenyl)-2-(2,2,4-trimethylpyrrolidin-1-yl)pyridine-3-carboxamide] | +++ (“+++” means <3 uM)
25 | C[C@@H]1CN(c2ncccc2C(=O)NS(=O)(=O)c2cccc(N)n2)C(C)(C)C1 [Compound 946, N-[(6-amino-2-pyridyl)sulfonyl]-2-[(4S)-2,2,4-trimethylpyrrolidin-1-yl]pyridine-3-carboxamide] | ++ (“++” means between 3 uM and 10 uM)
26 | Cc1ccc(-c2ccc(C(=O)NS(=O)(=O)c3cccc(N)n3)c(NCC3(C)CCOCC3)n2)cc1 [Compound 1196, N-[(6-amino-2-pyridyl)sulfonyl]-2-[(4-methyltetrahydropyran-4-yl)methylamino]-6-(p-tolyl)pyridine-3-carboxamide] | ++ (“++” means between 3 uM and 10 uM)
27 | COc1cc(-c2ccc(C(=O)NS(=O)(=O)c3ccc[nH]c3=O)c(N3C[C@@H](C)CC3(C)C)n2)cc(F)c1F [Compound 1914, 6-(3,4-difluoro-5-methoxy-phenyl)-N-[(2-oxo-1H-pyridin-3-yl)sulfonyl]-2-[(4S)-2,2,4-trimethylpyrrolidin-1-yl]pyridine-3-carboxamide] | +++ (“+++” means <3 uM)
28 | COc1cc(OC)cc(-c2ccc(C(=O)NS(=O)(=O)c3cccnc3N)c(N3C[C@@H](C)CC3(C)C)n2)c1 [Compound 1825, N-[(2-amino-3-pyridyl)sulfonyl]-6-(3,5-dimethoxyphenyl)-2-[(4S)-2,2,4-trimethylpyrrolidin-1-yl]pyridine-3-carboxamide] | +++ (“+++” means <3 uM)
29 | CCc1ccnc(Nc2cccc(S(=O)(=O)NC(=O)c3cccnc3N3CC(C)CC3(C)C)n2)c1 (centres unmarked) [Compound 1862, N—[[6-[(4-ethyl-2-pyridyl)amino]-2-pyridyl]sulfonyl]-2-(2,2,4-trimethylpyrrolidin-1-yl)pyridine-3-carboxamide] | +++ (“+++” means <3 uM)
